Experimental data reported in US20110086063A1, “VACCINES FOR PREVENTION AND TREATMENT OF ADDICTION” (priority 2008, published 2011).
Where two headings read alike, the source gives them in different places.

Experiments:
[1] = Stability of cocaine hapten
[2] = target: T1, dopamine transporters (DAT) (Homo sapiens, UniProt Q01959); conditions: human cocaine abusers; cited from earlier work
T1 construct: In human cocaine abusers, at least 47% of the DAT needs to be occupied; host or cells: human brain, in vivo
T1 sequence (Q01959 whole entry): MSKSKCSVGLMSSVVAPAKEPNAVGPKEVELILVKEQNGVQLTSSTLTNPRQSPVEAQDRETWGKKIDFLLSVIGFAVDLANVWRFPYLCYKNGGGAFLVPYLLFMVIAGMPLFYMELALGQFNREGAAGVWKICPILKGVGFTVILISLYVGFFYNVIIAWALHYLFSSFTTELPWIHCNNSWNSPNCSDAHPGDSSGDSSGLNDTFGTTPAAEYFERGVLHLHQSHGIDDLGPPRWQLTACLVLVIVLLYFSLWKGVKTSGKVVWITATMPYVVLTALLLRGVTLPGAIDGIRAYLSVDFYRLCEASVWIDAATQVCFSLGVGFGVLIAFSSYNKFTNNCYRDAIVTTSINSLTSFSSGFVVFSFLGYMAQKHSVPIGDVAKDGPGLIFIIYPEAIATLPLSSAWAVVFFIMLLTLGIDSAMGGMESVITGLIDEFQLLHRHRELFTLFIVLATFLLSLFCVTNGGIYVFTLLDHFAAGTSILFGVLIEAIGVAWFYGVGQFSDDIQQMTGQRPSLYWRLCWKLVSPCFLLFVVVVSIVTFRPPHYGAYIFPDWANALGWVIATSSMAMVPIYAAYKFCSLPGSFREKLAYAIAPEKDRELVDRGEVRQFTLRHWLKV

[3] = target: T2, dopamine transporters (DAT) (Macaca mulatta, UniProt Q7JHP9); conditions: rhesus monkeys, cited from earlier work
T2 construct: In rhesus monkeys, doses of 0.1 and 1.0 mg/kg cocaine occupy 53% and 87% of the DAT; host or cells: rhesus monkey brain, in vivo
T2 sequence (Q7JHP9 1-620): as the sequence (Q01959 whole entry) above, with V24M, I137V, P194S, S198G, D200N, S201G, S202P counted along it

female rhesus monkeys = test: Cocaine and candy self-administration choice in female rhesus monkeys; assay type: in vivo; conditions: representative female monkey; either dose of cocaine available (FIG. 5)
Excerpt: FIG. 5 is a bar graph depicting cocaine and candy self-administration in female rhesus monkeys. The data is presented as a function of cocaine dose available.
A non-human primate model of intravenous cocaine self-administration will be used to determine if vaccination with Ad-cocaine decreases drug taking, which will likely provide the best predictor of clinical efficacy. To control for nonselective effects, monkeys will be trained to self-administer cocaine and candy, using a choice procedure. If the vaccine is effective at blocking the effects of cocaine, monkeys should decrease the number of cocaine choices self-administered and correspondingly increase the number of candy choices. A non-specific effect would be evidenced by a decrease in both cocaine and candy choices. After all monkeys have been trained to enter the primate chair and respond on the levers for candy, they will have vascular access port surgery (VAP). For self-administration sessions, monkeys will be placed into custom-built primate chairs, moved to the workstation, and connected to the infusion apparatus. Sessions will be conducted five days per week. Monkeys will initially be trained to self-administer 0.1 mg/kg cocaine per infusion. Once responding is stable, the cocaine dose available will be 0.05 mg/kg/infusion. […]

Structure (SMILES)	stability relative to GNC [1]	DAT occupancy needed to perceive the subjective effects of cocaine [2]	occupancy of the DAT ([3]; 0.1 mg/kg cocaine)	occupancy of the DAT ([3]; 1.0 mg/kg cocaine)	choice between i.v. cocaine and candy (female rhesus monkeys)
CN1C2CCC1[C@@H](C(=O)NCCCCCC(=O)O)[C@@H](OC(=O)c1ccccc1)C2 (some centres unmarked) [GNE]	more stable than GNC	–	–	–	–
COC(=O)[C@@H]1C2CCC(C[C@@H]1OC(=O)c1ccccc1)N2C (some centres unmarked) [cocaine]	–	at least 47%	53%	87%	exclusively chose cocaine over candy
